Legend:
Cbl-b = Cbl-b (Homo sapiens (Human), UniProt Q13191); test: Cbl-b probe displacement HTRF binding assay; details: 0.4 nM biotinylated Cbl-b, 150 nM BODIPY probe
Method in brief: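 Biotinylated Cbl-b (0.4 nM final) was preincubated 60 min at room temperature with compound (20-point 1:2 series, top 10 μM final), then BODIPY probe (150 nM final) was added for 15 min before streptavidin-terbium cryptate. Buffer was 20 mM Hepes, 150 mM NaCl, 0.01% Triton X-100, 0.5 mM TCEP, 0.01% BSA; IC50 was derived from a four-parameter fit of HTRF signal loss.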

Jurkat cells = test: IL-2 secretion assay in CD3/CD28-activated Jurkat cells (AlphaLISA); type: cell-based, human; details: CD3/CD28 activation, 24 h
Method in brief: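 Jurkat cells in Opti-MEM (50,000/well) preincubated 1 h at 37° C with compound (16-point 1:2 dilution, final 10 μM to […]), then activated with CD3/CD28 T cell activator for 24 h at 37° C. Secreted IL-2 in supernatant quantified by AlphaLISA; EC50 from 4-parameter logistic fit.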

Sequence of Cbl-b (Q13191 whole entry, species assumed): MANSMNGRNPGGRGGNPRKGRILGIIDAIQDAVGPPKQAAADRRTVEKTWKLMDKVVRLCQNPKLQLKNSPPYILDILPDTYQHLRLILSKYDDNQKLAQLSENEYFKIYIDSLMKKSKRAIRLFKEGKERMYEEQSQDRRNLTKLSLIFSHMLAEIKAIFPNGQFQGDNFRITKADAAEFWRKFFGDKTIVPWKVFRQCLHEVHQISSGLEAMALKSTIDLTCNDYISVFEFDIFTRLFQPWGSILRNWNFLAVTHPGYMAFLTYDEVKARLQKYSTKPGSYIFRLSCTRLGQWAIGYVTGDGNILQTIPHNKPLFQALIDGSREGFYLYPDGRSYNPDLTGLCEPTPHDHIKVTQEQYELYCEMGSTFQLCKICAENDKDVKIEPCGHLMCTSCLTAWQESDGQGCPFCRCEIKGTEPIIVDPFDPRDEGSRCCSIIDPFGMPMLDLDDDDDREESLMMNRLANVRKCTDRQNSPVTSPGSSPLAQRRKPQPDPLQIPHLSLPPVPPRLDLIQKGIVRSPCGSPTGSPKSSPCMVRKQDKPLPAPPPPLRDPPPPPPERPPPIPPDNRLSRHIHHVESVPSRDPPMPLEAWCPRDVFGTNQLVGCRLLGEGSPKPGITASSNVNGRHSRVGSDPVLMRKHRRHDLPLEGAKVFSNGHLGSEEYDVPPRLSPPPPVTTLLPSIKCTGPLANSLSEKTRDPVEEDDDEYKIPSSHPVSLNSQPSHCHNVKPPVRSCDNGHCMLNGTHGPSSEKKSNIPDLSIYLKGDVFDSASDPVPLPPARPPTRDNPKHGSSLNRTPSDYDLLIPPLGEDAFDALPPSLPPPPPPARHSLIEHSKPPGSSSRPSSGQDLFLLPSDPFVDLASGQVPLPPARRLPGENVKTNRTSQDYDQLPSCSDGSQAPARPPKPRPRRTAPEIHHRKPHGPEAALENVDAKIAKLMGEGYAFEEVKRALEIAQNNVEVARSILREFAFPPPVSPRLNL

| Compound | IC50 (Cbl-b) [nM] | EC50 (Jurkat cells; Homo sapiens) [nM] | EC50 (Jurkat cells) [nM] |
| --- | --- | --- | --- |
| C[C@H]1CCCN(Cc2nc3c(C(F)(F)F)cn(-c4cc(-c5ccc(F)cc5C(=O)N5CC(F)C5)cc(C5CC5)n4)c(=O)c3[nH]2)C1 [Example 48, 5-[6-cyclopropyl-4-[4-fluoro-2-(3-fluoroazetidine-1-carbonyl)phenyl]pyridin-2-yl]-2-[[(3S)-3-methylpiperidin-1-yl]methyl]-7-(trifluoromethyl)-3H-imidazo[4,5-c]pyridin-4-one] | < 100 | < 100 | – |
| Cc1cn(-c2cc(-c3ccc(F)cc3C(=O)N3CC(F)C3)cc(C3CC3)n2)c(=O)c2[nH]c([C@H]3CCCN3)nc12 [Example 49, 5-[6-cyclopropyl-4-[4-fluoro-2-(3-fluoroazetidine-1-carbonyl)phenyl]pyridin-2-yl]-7-methyl-2-[(2R)-pyrrolidin-2-yl]-3H-imidazo[4,5-c]pyridin-4-one] | < 100 | > 5000 | – |
| Cc1cn(-c2cc(-c3ccc(F)cc3C(=O)N3CC(F)C3)cc(C3CC3)n2)c(=O)c2[nH]c([C@@H]3CCCN3)nc12 [Example 50, 5-[6-cyclopropyl-4-[4-fluoro-2-(3-fluoroazetidine-1-carbonyl)phenyl]pyridin-2-yl]-7-methyl-2-[(2S)-pyrrolidin-2-yl]-3H-imidazo[4,5-c]pyridin-4-one] | 100 to 1000 | > 5000 | – |
| N#Cc1c[nH]c2c(=O)n(-c3cc(-c4ccc(F)cc4C(=O)C4CC(F)C4)cc(C4CC4)n3)cc(C(F)(F)F)c12 (centres unmarked) [Example 51, 6-[6-cyclopropyl-4-[4-fluoro-2-(3-fluorocyclobutanecarbonyl)phenyl]pyridin-2-yl]-7-oxo-4-(trifluoromethyl)-1H-pyrrolo[2,3-c]pyridine-3-carbonitrile] | < 100 | – | 100 to 1000 |
| O=C(c1cc(F)ccc1-c1cc(C2CC2)nc(-n2cc(C(F)(F)F)c3cc(CO)[nH]c3c2=O)c1)C1CC(F)C1 (centres unmarked) [Example 52, 6-[6-cyclopropyl-4-[4-fluoro-2-(3-fluorocyclobutanecarbonyl)phenyl]pyridin-2-yl]-2-(hydroxymethyl)-4-(trifluoromethyl)-1H-pyrrolo[2,3-c]pyridin-7-one] | < 100 | 100 to 1000 | – |
| N#Cc1c(CO)[nH]c2c(=O)n(-c3cc(-c4ccc(F)cc4C(=O)C4CC(F)C4)cc(C4CC4)n3)cc(C(F)(F)F)c12 (centres unmarked) [Example 53, 6-[6-cyclopropyl-4-[4-fluoro-2-(3-fluorocyclobutanecarbonyl)phenyl]pyridin-2-yl]-2-(hydroxymethyl)-7-oxo-4-(trifluoromethyl)-1H-pyrrolo[2,3-c]pyridine-3-carbonitrile] | < 100 | 100 to 1000 | – |
| N#Cc1cn(-c2cc(-c3ccc(F)cc3C(=O)N3CC(F)C3)cc(C3CC3)n2)c(=O)c2[nH]c(CO)cc12 [Example 54, 6-(6-cyclopropyl-4-{4-fluoro-2-[(3-fluoro-1-azetidinyl)carbonyl]phenyl}-2-pyridyl)-2-(hydroxymethyl)-7-oxo-1,6-dihydro-1,6-diaza-4-indenecarbonitrile] | < 100 | 100 to 1000 | – |

Second part, the molecule after the results:

| IC50 (Cbl-b) [nM] | EC50 (Jurkat cells; Homo sapiens) [nM] | EC50 (Jurkat cells) [nM] | Compound |
| --- | --- | --- | --- |
| < 100 | 100 to 1000 | – | C[C@H]1CCCN(Cc2cc3c(C#N)cn(-c4cc(-c5c(C(=O)N6CC(F)C6)cnn5C)cc(C5CC5)n4)c(=O)c3[nH]2)C1 [Example 45, 2-{[(S)-3-methyl-1-piperidyl]methyl}-6-(6-cyclopropyl-4-{4-[(3-fluoro-1-azetidinyl)carbonyl]-1-methyl-5-pyrazolyl}-2-pyridyl)-7-oxo-1,6-dihydro-1,6-diaza-4-indenecarbonitrile] |
| < 100 | < 100 | – | C[C@H]1CCCN(Cc2[nH]c3c(=O)n(-c4cc(-c5ccc(F)cc5C(=O)N5CC(F)C5)cc(C5CC5)n4)cc(C#N)c3c2Cl)C1 [Example 46, 2-{[(S)-3-methyl-1-piperidyl]methyl}-3-chloro-6-(6-cyclopropyl-4-{4-fluoro-2-[(3-fluoro-1-azetidinyl)carbonyl]phenyl}-2-pyridyl)-7-oxo-1,6-dihydro-1,6-diaza-4-indenecarbonitrile] |
| < 100 | 100 to 1000 | – | CC(c1cc2ncn(-c3cc(-c4ccc(F)cc4C(=O)N4CC(F)C4)cc(C4CC4)n3)c(=O)c2[nH]1)N1CCO[C@H](C)C1 (stereo partly drawn) [Example 47, 2-{1-[(R)-2-methyl-4-morpholinyl]ethyl}-6-(6-cyclopropyl-4-{4-fluoro-2-[(3-fluoro-1-azetidinyl)carbonyl]phenyl}-2-pyridyl)-1,6-dihydro-1,4,6-triaza-7-indenone] |

Reference: patent US20240425497A1, “Cbl-b Inhibitors and Methods of Use Thereof” (ARCUS BIOSCIENCES, INC., priority 2023, published 2024)
